Data taken from patent EP0551200A1, “Protein phosphatase inhibitors for use in therapy” (priority 1992, dated 1993).

System: Egr-1 mRNA
Experiment: Nuclear run-on analysis of transcription in Balb/c 3T3 cells
Assay type: cell-based, mouse
Settings: 0.5 µM
Experimental: Nuclei were isolated from quiescent (0 h) and okadaic acid-treated (0.5 µM) Balb/c 3T3 cells under conditions described in the "Experimental Procedures" of Example 2. Nylon matrix containing the indicated plasmids were hybridized with the in vitro transcribed RNA and then autoradiographed. Control cells were also treated with DMEM containing […] of DMSO and RNA from these cells were also transcribed and hybridized to the various plasmids indicated.
Cell Cultures and Reagents. Human diploid foreskin fibroblasts were a gift from Dr J Vilcek (New York University, New York). The cells were grown in MEM supplemented with 10% fetal bovine serum (Hyclone, Logan, UT, US), Mouse Balb/c 3T3 cells were purchased from the American Type Culture Collection and grown in Dulbecco's MEM (DMEM) supplemented with 10% fetal bovine serum. Okadaic acid, calyculin A, H7, and HA1004 were purchased from Biomol Research Laboratories (Plymouth Meeting, PA, US). TPA, puromycin and dBt-cAMP were purchased from Sigma (St Louis, MO, US) 1 mM stock solutions of okadaic acid or calyculin A were solubilized in DMSO. [³²P]orthophosphate and other radioactive chemicals were purchased from Du Pont-New England Nuclear (Boston, MA). Preparation of RNA and Northern Analysis. Balb/c 3T3 cells were grown to near confluency in DMEM supplemented with 10% fetal calf serum. The cells were then maintained in DMEM without serum for 48 h followed by treatment with the indicated agonists for the times indicated. Similarly human fibroblasts were maintained in MEM supplemented with 10% fetal bovine serum. Nearly confluent human fibroblasts were maintained for 2 days in MEM supplemented with 0.25% fetal bovine serum before treatment with agonists. The cells were harvested and total cytoplasmic RNA was isolated and subjected to Northern analysis as previously described (Chomczynski et al, Anal. Biochem. 162, 156-159, 1987). The blots were autoradiographed and quantitated with the aid of the Visage 2000 Image System (BioImage Products, Ann Arbor, MI, US). Nuclear Run-on Analysis of Transcription. […]

C=C1[C@@H](O)[C@@H]2O[C@]3(CC[C@H](/C=C/[C@@H](C)[C@@H]4CC(C)=C[C@@]5(O[C@H](C[C@@](C)(O)C(=O)O)CC[C@H]5O)O4)O3)CC[C@H]2O[C@@H]1[C@@H](O)C[C@H](C)[C@H]1O[C@@]2(CCCCO2)CC[C@H]1C [okadaic acid]
time at which a trace of newly transcribed Egr-1 mRNA was detectable: 0.5 h | time by which significant amounts of Egr-1 mRNA were transcribed: ≤ 1 h | time of maximum transcription of Egr-1 mRNA: 4 h
